Laboratory results as given in patent publication US20230127008A1, “STAT3-TARGETED BASE EDITOR THERAPEUTICS FOR THE TREATMENT OF MELANOMA AND OTHER CANCERS” (The Broad Institute, Inc., priority 2020, published 2023).

Tests used:
[1] = test system: DNA; settings: SpCas9 mutation relative to SEQ ID NO: 74; UniProtKB-Q99ZW2 entry; cited from earlier work
[2] = target: STAT3 SH2 domain (Homo sapiens, UniProt P40763); settings: 37° C.; cited from earlier work
[3] = test system: STAT3; experiment: STAT3 reporter system (STAT3 signal); type: cell-based
[4] = test system: STAT3; experiment: STAT3 reporter signal after STAT3 inhibitor or base editor treatment (FIGS. 3, 4, 5); type: cell-based
[5] = test system: STAT3-dependent breast cancer cells; settings: 10 μM; cited from earlier work
[6] = test system: DNA; experiment: A to G editing on DNA by ecTadA mutant-nCas9 constructs (mammalian construct); type: cell-based

Chain of STAT3 SH2 domain (P40763 whole entry, the tested form may be a part): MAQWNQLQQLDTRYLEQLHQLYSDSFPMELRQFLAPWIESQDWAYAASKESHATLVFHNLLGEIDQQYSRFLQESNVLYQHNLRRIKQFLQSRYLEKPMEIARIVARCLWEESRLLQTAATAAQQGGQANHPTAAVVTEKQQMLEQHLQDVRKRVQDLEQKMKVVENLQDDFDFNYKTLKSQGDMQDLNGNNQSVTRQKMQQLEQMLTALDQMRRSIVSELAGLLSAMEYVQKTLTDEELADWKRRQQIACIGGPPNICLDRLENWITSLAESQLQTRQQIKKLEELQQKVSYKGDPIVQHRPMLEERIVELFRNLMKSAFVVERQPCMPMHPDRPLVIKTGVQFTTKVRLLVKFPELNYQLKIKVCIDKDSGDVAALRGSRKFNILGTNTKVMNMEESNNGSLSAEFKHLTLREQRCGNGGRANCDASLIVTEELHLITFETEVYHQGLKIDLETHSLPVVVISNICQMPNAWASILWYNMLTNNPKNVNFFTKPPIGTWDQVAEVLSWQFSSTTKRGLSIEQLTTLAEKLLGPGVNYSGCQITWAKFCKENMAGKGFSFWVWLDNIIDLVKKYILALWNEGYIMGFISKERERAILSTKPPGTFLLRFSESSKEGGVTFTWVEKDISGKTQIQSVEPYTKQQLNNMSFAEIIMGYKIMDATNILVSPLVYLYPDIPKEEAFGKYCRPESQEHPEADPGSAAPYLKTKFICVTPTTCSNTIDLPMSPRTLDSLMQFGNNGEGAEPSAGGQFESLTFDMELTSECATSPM

1099-1368 deletion: SpCas9 mutation relative to canonical SpCas9, SEQ ID NO: 74
Function/Characteristic (as reported) [1]: No nuclease activity

O=[N+]([O-])c1ccc2c(c1)S(=O)(=O)C=C2 [Stattic, stattic]
IC50 [2]: 5.1 µM | inhibition of STAT3 ([3]; STAT3 inhibitor at different concentrations, FIG. 3): inhibition of STAT3 | STAT3 signal over time ([3]; extension of the graph of FIG. 3, FIG. 5): does not lead to a durable effect | STAT3 signal over time [4]: produces an effect that does not last over time | STAT3-driven signals ([4]; different concentrations): reduce STAT3-driven signals | apoptosis [5]: induce apoptosis

H840A: SpCas9 mutation relative to canonical SpCas9, SEQ ID NO: 74
Function/Characteristic (as reported) [1]: Nickase mutant which cleaves the non-

ecTadA(D108G)-XTEN-nCas9-NLS: ABE fusion protein, SEQ ID NO: 155
activity on DNA, A to G editing [6]: ecTadA(D108G)-XTEN-nCas9-NLS: (mammalian construct, active on DNA, A to G

ecTadA(D108N)-XTEN-nCas9-NLS: ABE fusion protein, SEQ ID NO: 154
activity on DNA, A to G editing [6]: ecTadA(D108N)-XTEN-nCas9-NLS: (mammalian construct, active on DNA, A to G

ecTadA(D108V)-XTEN-nCas9-NLS: ABE fusion protein, SEQ ID NO: 156
activity on DNA, A to G editing [6]: ecTadA(D108V)-XTEN-nCas9-NLS: (mammalian construct, active on DNA, A to G
